Measured values as given in ChEMBL document CHEMBL5365456, “Isolation and biological activity of natural chalcones based on antibacterial mechanism classification” (Bioorg Med Chem, 2023).
Values after ≈ are worked out from the molar mass of the structure shown.

What was measured:
[1] = system: Staphylococcus aureus; experiment: Inhibition of Staphylococcus aureus ATCC 6538 Catalase at 7.81 ug/ml relative to control; conditions: dose 7.81 µg/ml
[2] = system: Pectobacterium brasiliense; experiment: Antibiofilm activity against Pectobacterium brasiliense Pb1692 at 0.4 ug/ml incubated for 72 hr by crystal violet staining based assay relative to control; format: functional
[3] = Inhibition of Escherichia coli 0157:H7 AI-2 incubated for 3.5 hrs in dark condition by microplate reader analysis
[4] = system: Staphylococcus aureus; experiment: Inhibition of Staphylococcus aureus ATCC 6538 LDH at 7.81 ug/ml relative to control; conditions: dose 7.81 µg/ml
[5] = system: Mycobacterium tuberculosis; experiment: Antitubercular activity against XDR Mycobacterium tuberculosis X24 assessed as bacterial growth inhibition measured for 9 days; format: functional; conditions: X24, 216 h, time 9 day
[6] = system: Micrococcus luteus; experiment: Antibacterial activity against Micrococcus luteus assessed bacterial growth inhibition by CLSI-based micro broth dilution method; format: functional
[7] = system: Cutibacterium acnes; experiment: Antibacterial activity against Propionibacterium acnes KCTC5527 assessed as bacterial growth inhibition incubated for 48 hrs by broth microdilution assay; format: functional
[8] = system: Streptococcus pyogenes; experiment: Antibacterial activity against Streptococcus pyogenes ATCC 19615 assessed bacterial growth inhibition incubated for 24 hrs by double dilution method; format: functional
[9] = system: Streptococcus pyogenes; experiment: Antibiofilm activity against Streptococcus pyogenes ATCC 19615 at 23.4 ug/ml incubated for 1 hr by crystal violet staining based assay relative to control; format: functional; conditions: dose 23.4 µg/ml
[10] = system: Staphylococcus aureus; experiment: Antibacterial activity against Staphylococcus aureus ATCC 29213 assessed as bacterial growth inhibition by CLSI-based broth micro-dilution method; format: functional
[11] = system: Cutibacterium acnes; experiment: Antibacterial activity against Propionibacterium acnes KCTC5933 assessed as bacterial growth inhibition incubated for 48 hrs by broth microdilution assay; format: functional
[12] = system: Staphylococcus aureus; experiment: Antibiofilm activity against Staphylococcus aureus RN4220 incubated for 18 to 24 hrs by broth microdilution method; format: functional; conditions: time 18-24 hrs
[13] = system: Escherichia coli; experiment: Antibiofilm activity against Escherichia coli 0157:H7 at 50 ug/ml incubated for 10 hrs by crystal violet staining based assay relative to control; format: functional
[14] = system: Staphylococcus aureus; experiment: Antibacterial activity against Staphylococcus aureus 8325-4 assessed as bacterial growth inhibition by CLSI-based broth micro-dilution method; format: functional
[15] = system: Mycobacterium tuberculosis; experiment: Antitubercular activity against XDR Mycobacterium tuberculosis X59 assessed as bacterial growth inhibition measured for 9 days; format: functional; conditions: X59, 216 h, time 9 day
[16] = system: Listeria monocytogenes; experiment: Antibiofilm activity against Listeria monocytogenes CMCC 54004 at 20 ug/ml by crystal violet staining based assay relative to control; format: functional
[17] = system: Staphylococcus aureus; experiment: Antibiofilm activity against Staphylococcus aureus RN4220 at 1 ug/ml incubated for 18 to 24 hrs by broth microdilution method relative to control; format: functional; conditions: time 18-24 hrs
[18] = system: Candida albicans; experiment: Antifungal activity against Candida albicans SC5314 assessed as fungal growth inhibition incubated for 48 hrs by CLSI-based two-fold serial dilution method; format: functional
[19] = system: Staphylococcus aureus; experiment: Inhibition of Staphylococcus aureus ATCC 6538 IDH at 7.81 ug/ml relative to control; conditions: dose 7.81 µg/ml
[20] = system: Staphylococcus aureus; experiment: Antibiofilm activity against Staphylococcus aureus RN4220 at 8 to 256 ug/ml incubated for 18 to 24 hrs by broth microdilution method relative to control; format: functional; conditions: dose 8-256 µg/ml; time 18-24 hrs; at 8 to 256 µg/mL
[21] = system: Staphylococcus aureus; experiment: Antibiofilm activity against Staphylococcus aureus SA1199B incubated for 18 to 24 hrs by broth microdilution method; format: functional; conditions: time 18-24 hrs
[22] = system: Cutibacterium acnes; experiment: Antibacterial activity against Propionibacterium acnes KCTC3314 assessed as bacterial growth inhibition incubated for 48 hrs by broth microdilution assay; format: functional
[23] = system: Candida albicans; experiment: Antifungal activity against Candida albicans SC5314 assessed as fungal growth inhibition incubated for 48 hrs by CLSI protocol based assay; format: functional
[24] = system: Cutibacterium acnes; experiment: Antibacterial activity against Propionibacterium acnes KCTC3220 assessed as bacterial growth inhibition incubated for 48 hrs by broth microdilution assay; format: functional
[25] = system: Candida albicans; experiment: Inhibition of Candida albicans SC5314 hyphal transition at 74.55 ug/ml incubated for 24 hrs relative to control; format: functional
[26] = system: Staphylococcus aureus; experiment: Antibacterial activity against Staphylococcus aureus Newman assessed as bacterial growth inhibition by CLSI-based broth micro-dilution method; format: functional
[27] = biological target: T1, Sortase B (Staphylococcus aureus, UniProt Q2FZE3); experiment: Inhibition of Staphylococcus aureus sortase b transpeptidation expressed in Escherichia coli BL21 (DE3) cells using Fluorescent peptide as substrate at 16 ug/ml preincubated for 30 mins followed by substrate addition and measured for 1 hr by FRET assay
T1 sequence (Q2FZE3 whole entry): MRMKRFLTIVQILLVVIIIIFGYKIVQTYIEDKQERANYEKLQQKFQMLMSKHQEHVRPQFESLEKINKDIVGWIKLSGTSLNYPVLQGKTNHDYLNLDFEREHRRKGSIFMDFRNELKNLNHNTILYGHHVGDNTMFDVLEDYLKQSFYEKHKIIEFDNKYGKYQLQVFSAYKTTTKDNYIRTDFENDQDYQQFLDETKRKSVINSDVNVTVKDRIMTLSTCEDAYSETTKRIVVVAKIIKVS

[28] = system: Mycobacterium tuberculosis; experiment: Antitubercular activity against Mycobacterium tuberculosis H37Rv assessed as bacterial growth inhibition measured for 9 days; format: functional; conditions: 216 h, time 9 day
[29] = system: Staphylococcus aureus; experiment: Antibiofilm activity against Staphylococcus aureus SA1199B at 128 ug/ml incubated for 18 to 24 hrs by broth microdilution method relative to control; format: functional; conditions: time 18-24 hrs
[30] = system: Klebsiella pneumoniae; experiment: Antibacterial activity against Klebsiella pneumoniae assessed bacterial growth inhibition by CLSI-based micro broth dilution method; format: functional
[31] = system: Staphylococcus aureus; experiment: Antibacterial activity against Staphylococcus aureus ATCC 6538 assessed bacterial growth inhibition incubated for 24 hrs by CLSI-based broth dilution method; format: functional
[32] = system: Staphylococcus aureus; experiment: Antibacterial activity against Staphylococcus aureus BAA 1707 assessed as bacterial growth inhibition by CLSI-based broth micro-dilution method; format: functional
[33] = system: Escherichia coli; experiment: Antibiofilm activity against Escherichia coli 0157:H7 at 25 ug/ml incubated for 10 hrs by crystal violet staining based assay relative to control; format: functional
[34] = system: Staphylococcus aureus; experiment: Antibacterial activity against Staphylococcus aureus ATCC 25923 assessed as bacterial growth inhibition by CLSI-based broth micro-dilution method; format: functional
[35] = system: Staphylococcus aureus; experiment: Antibacterial activity against Staphylococcus aureus BAA 1717 assessed as bacterial growth inhibition by CLSI-based broth micro-dilution method; format: functional
[36] = system: Candida albicans; experiment: Antibiofilm activity against Candida albicans ATCC SC5314 at 74.55 ug/ml incubated for 24 hr by crystal violet staining based assay relative to control; format: functional

Work on O=C(CCc1ccc(O)cc1)c1c(O)cc(O)cc1O [PHLORETIN] yielded an inhibition [1] of 30%, an inhibition at 0.4 µg/mL [2] of over 60% and an IC50 [3] of 62.5 µM. It also gave an inhibition [4] of 20%, an MIC90 [5] of 182 µM (≈ 49.9 µg/mL) and an MIC50 [6] of 230 µM (≈ 63.1 µg/mL). It also gave an MIC [7] of 16 µM (≈ 4.39 µg/mL), an MIC [8] of 46.8 µg/mL (≈ 171 µM) and an inhibition (INH) [9] of 46.4%. For the same compound, the MIC [10] was 128 µg/mL (≈ 467 µM), the MIC [11] was 16 µM (≈ 4.39 µg/mL) and the MBIC50 [12] was 1 µg/mL. It also gave an inhibition at 50 µg/mL [13] of 93%, an MIC [14] of 128 µg/mL (≈ 467 µM) and an MIC90 [15] of 182 µM (≈ 49.9 µg/mL). It also gave an inhibition at 20 µg/mL [16] of 60%, an inhibition at 1 µg/mL [17] of 60% and an MIC [18] of 74.5 µg/mL (≈ 272 µM). The inhibition [19] was 60%, the “inhibition (INH)” value [20] was over 70% and the MBIC50 [21] was 256 µg/mL. For the same compound, the MIC [22] was 16 µM (≈ 4.39 µg/mL), the MIC [23] was 74.5 µg/mL (≈ 272 µM) and the MIC [24] was 16 µM (≈ 4.39 µg/mL). It also gave an inhibition at 74.55 µg/mL [25] of 80%, an MIC [26] of 128 µg/mL (≈ 467 µM) and an IC50 [27] of 35.5 µM. The MIC90 [28] was 182 µM (≈ 49.9 µg/mL), the inhibition at 128 µg/mL [29] was at least 50% and the MIC50 [30] was 410 µM (≈ 112 µg/mL). The MIC [31] was 7.81 µg/mL (≈ 28.5 µM), the MIC [32] was 128 µg/mL (≈ 467 µM) and the inhibition at 25 µg/mL [33] was 89%. For the same compound, the MIC [34] was 128 µg/mL (≈ 467 µM), the MIC [35] was 128 µg/mL (≈ 467 µM) and the inhibition at 74.55 µg/mL [36] was 76%.
